Columns and labels:
Format in all cases: cell-based
[1] = target: T1, TREM2 (Homo sapiens, UniProt Q9NZC2); assay: Liposome stimulation pSyk AlphaLISA, HEK293 overexpressing TREM2 and DAP12; details: liposomes 30% lipid/70% PC (KLA 10%/90%), fold change over HBSS
T1 construct: expressed in transfected cells
Experimental: (§1) Lipids were purchased from Avanti Polar Lipids (Alabaster, Ala.) or Echelon Biosciences (Salt Lake City, Utah). Each screened lipid was resuspended in chloroform and added at 30 mole percent composition to 70 mole percent phosphatidylcholine (PC; 1,2-dioleoyl-sn-glycero-3-phosphocholine, Avanti Polar Lipids). Kdo2-Lipid A was added at a 10 mole percent composition with 90 mole percent PC. Lipid mixes were dried under nitrogen gas and resuspended in HBSS at a concentration of 4 mg/mL. Mixes were vortexed or briefly sonicated until resuspended, then bath sonicated for 1-5 minutes. Liposomes were used for 1-2 weeks. 3 independent batches of liposomes were used in experiments.
(§2) HEK293 cell lines overexpressing TREM2 and DAP12, mutant TREM2-R47H and DAP12, or DAP12 alone were plated in 96-well PDL-coated plates at a density of 40,000 cells per well and cultured for 36-48 hours until 90-100% confluent.
(§3) Cell culture medium was removed and cells were washed once with 200ul HBSS. Liposomes were diluted in HBSS in concentrations ranging from 0.03125 mg/mL to 2 mg/mL, then 50 μl was added to wells in 2-3 technical replicates per plate. Each plate contained HBSS negative control wells, 100% PC liposome control, 5 μg/mL agonist anti-TREM2 positive control (Abnova; Taiwan; # MAB2056), and 5 μg/mL mouse IgG3 isotype control (R&D Systems; Minneapolis, Minn.; # MAB007). Stimuli were incubated with cells for 5 minutes at 37° C., 5% CO2, liposomes were removed, and plates were frozen at −80° C.
(§4) Cells were lysed for 30 minutes to 1 hour on ice in 50 ul/well Cell Lysis Buffer (Cell Signaling Technology; Danvers, Mass.; #9803) with 1 mM PMSF. AlphaLISA SureFire Ultra p-Syk Tyr525/526 assay kit (PerkinElmer, ALSU-PSYK-A10OK) was used to measure pSyk levels in lysate as per manufacturer protocol. 10 μl lysate was added to 384-well OptiPlates (PerkinElmer; #6007290) and an EnVision Multilabel Plate Reader (PerkinElmer) was used to measure AlphaLISA fluorescence.
(§5) PSyk AlphaLISA fluorescence was converted to a log 2 scale. Fluorescence values from liposomes and controls were each subtracted from average fluorescence values from HBSS stimulated wells on the same plate (log 2(liposome)−log 2(HBSSave)=log 2(signal)). The result was converted back to a standard scale to measure fold change (2^log 2(signal)=fold change). Technical replicate fold changes values were averaged to obtain the fold change over background listed (pSyk FOB). Graphs represent values from independent experiments or individual human donors. Results from the screen on the HEK293 overexpressing cell lines are shown in Table 9 below and in FIG. 8A-8B. HEK293 results showing specificity for TREM2 over DAP12 expressed alone can be used to extrapolate which lipid species are likely acting as TREM2 ligands on human macrophages.

[2] = target: T2, R47H TREM2 mutant (Homo sapiens, UniProt Q9NZC2, R47H); assay: Liposome stimulation pSyk AlphaLISA, HEK293 overexpressing TREM2-R47H and DAP12; details: liposomes 30% lipid/70% PC (KLA 10%/90%), fold change over HBSS
T2 construct: expressed in transfected cells
Experimental: as §1, §2, §3, §4, §5

[3] = target: T3, DAP12 alone (Homo sapiens, UniProt O43914); assay: Liposome stimulation pSyk AlphaLISA, HEK293 expressing DAP12 alone; details: liposomes 30% lipid/70% PC (KLA 10%/90%), fold change over HBSS
T3 construct: expressed in transfected cells
Experimental: as §1, §2, §3, §4, §5

[4] = system: primary human macrophages; assay: Liposome stimulation pSyk AlphaLISA, primary human macrophages; details: liposomes 30% lipid/70% PC (KLA 10%/90%)
Experimental: as §1
10 mL human blood was obtained from Blood Centers of the Pacific. Monocytes were extracted using RosetteSep Human Monocyte Enrichment Cocktail ([…] Technologies Inc.; Vancouver, BC; #15068) as per manufacturer protocols. Density gradient was performed with Ficoll-Paque Premium (GE Healthcare Life Sciences; Pittsburgh, Pa.; #17-5442-02). Isolated monocytes were resuspended at ˜1-1.3 million cells/mL and cultured for 5-6 days in RPMI, 10% Hyclone Fetal Bovine Serum, and penicillin/streptomycin supplemented with 50 ng/mL human M-CSF (Gibco, # PHC9501) in T175 tissue culture treated flasks. M-CSF was replenished every 2-3 days. Cells were washed once with PBS, 15 mL fresh medium was added, and cells were harvested by scraping. Cells were cultured overnight at a density of 100,000 cells per well on tissue culture treated 96-well plates supplemented with 10-25 ng/mL M-CSF.
as §3, §4, §5

T2 sequence (Q9NZC2 19-230 R47H): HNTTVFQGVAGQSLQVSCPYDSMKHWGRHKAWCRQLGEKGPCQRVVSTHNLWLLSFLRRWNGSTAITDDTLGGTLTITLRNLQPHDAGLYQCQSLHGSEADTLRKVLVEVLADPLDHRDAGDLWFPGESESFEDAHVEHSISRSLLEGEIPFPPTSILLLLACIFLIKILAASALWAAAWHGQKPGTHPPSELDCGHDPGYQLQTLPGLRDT
T2 sequence (O43914 22-113 partner): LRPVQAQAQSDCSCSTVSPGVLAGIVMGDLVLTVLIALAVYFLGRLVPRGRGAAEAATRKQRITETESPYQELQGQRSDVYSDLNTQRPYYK
T1 sequence (Q9NZC2 19-230): as the sequence (Q9NZC2 19-230 R47H) above, with H29R counted along it
T1 sequence (O43914 22-113 partner): as the sequence (O43914 22-113 partner) above
T3 sequence (O43914 22-113): as the sequence (O43914 22-113 partner) above

| Molecule | Human TREM2 (pSyk FOB) [1] | R47H TREM2 mutant (pSyk FOB) [2] | DAP12 alone (pSyk FOB) [3] | pSyk FOB [4] |
| --- | --- | --- | --- | --- |
| Acyl Carnitine [Acyl Carnitine (AC)] | 1.17 FOB | 1.83 FOB | 1.55 FOB | – |
| lysoalkylacylglycerophosphocholine | 1.81 FOB | 1.46 FOB | 0.67 FOB | – |
| CCCCC/C=C\C/C=C\C/C=C\C/C=C\CCCC(=O)OC(CO)CO [2-Arachidonoylglycerol (2-AG), 2-Arachidonoylglycerol] | 0.68 FOB | 0.84 FOB | 1.11 FOB | 1.23 FOB |
| Bis(monoacylglycero)phosphate [Bis(monoacylglycero)phosphate (BMP)] | 4.85 FOB | 3.04 FOB | 1.42 FOB | 2.19 FOB |
| N-Acyl-Serine [N-Acyl-Serine (NSer)] | 2.59 FOB | 3.76 FOB | 1.39 FOB | 1.66 FOB |
| Diacylglycerol 34:1 [Diacylglycerol 34:1 (DG34:1)] | 1.20 FOB | 0.68 FOB | 0.68 FOB | – |
| Lysophosphatidylserine [Lysophosphatidylserine (LPS)] | 3.77 FOB | 3.88 FOB | 1.39 FOB | 1.78 FOB |
| CCCCCCCCCCCCC/C=C/[C@@H](O)[C@@H](N)CO[C@@H]1O[C@H](CO)[C@@H](O)[C@H](O)[C@H]1O [Glucosyl sphingosine (GlcSo), Glucosyl sphingosine] | 1.34 FOB | 1.27 FOB | 1.31 FOB | 2.05 FOB |
| CC(C)CCC[C@@H](C)[C@H]1CC[C@H]2[C@@H]3C(=O)C=C4C[C@@H](O)CC[C@]4(C)[C@H]3CC[C@]12C [7-ketocholesterol (7-KC), 7-ketocholesterol] | 1.10 FOB | 3.42 FOB | 1.36 FOB | 1.18 FOB |
| Lysophosphatidylglycerol [Lysophosphatidylglycerol (LPG)] | 4.83 FOB | 3.44 FOB | 1.28 FOB | 1.64 FOB |
| Glucosylceramide [Glucosylceramide (GlcCer)] | – | – | – | 1.58 FOB |
| Ganglioside GM3 | 5.82 FOB | 6.05 FOB | 1.14 FOB | 1.17 FOB |
| CCCCCCCCCCCCC/C=C/[C@@H](O)[C@@H](N)CO[C@@H]1O[C@H](CO)[C@H](O)[C@H](O)[C@H]1O [Galactosylsphingosine (GalSo), Galactosylsphingosine] | 1.09 FOB | 1.07 FOB | 0.71 FOB | – |
| CCCCCCCCCCCCC/C=C/[C@@H](O)[C@@H](N)COP(=O)([O-])OCC[N+](C)(C)C [Lysosphingomyelin (LSM), Lysosphingomyelin] | 0.67 FOB | 0.85 FOB | 1.03 FOB | 1.26 FOB |

Reference: patent US20200277373A1, “ANTI-TREM2 ANTIBODIES AND METHODS OF USE THEREOF” (Denali Therapeutics Inc., priority 2017, published 2020)
